In publication PMC8286840, “Identifying SARS-CoV-2 antiviral compounds by screening for small molecule inhibitors of Nsp3 papain-like protease” (Biochemical Journal, 2021):
Where a name gives a salt, the structure may show the parent alone. Read-outs that look alike come from different tables or passages of the source.

Assays:
[1] = target: T1, SARS-CoV-2 PLpro (nsp3 1564–1878) (Severe acute respiratory syndrome coronavirus 2, UniProt P0DTD1); assay: biochemical; parameters: FRET-quenched peptide (Pro3) cleavage by PLpro, 10 min pre-incubation, slope over 20 min, normalised to no-compound control; conditions: high concentration screen, read-out: % of control remaining
[2] = target: T1, SARS-CoV-2 PLpro (nsp3 1564–1878); assay: biochemical; parameters: FRET-quenched peptide (Pro3) cleavage by PLpro, 10 min pre-incubation, slope over 20 min, normalised to no-compound control; conditions: low concentration screen, read-out: % of control remaining

Cc1c(F)cccc1NC(=O)Nc1ccc(Cl)c(S(=O)(=O)[C@H]2CCCNC2)c1O [Danirixin]
remaining activity at 3.75 µM ([1]; Well no.=8173): 103% | remaining activity at 1.25 µM ([2]; Well no.=8173): 111%

CN1C[C@@H]2C[C@H]1CN2c1cc2c(cc1F)c(=O)c(C(=O)O)cn2C1CC1 [Danofloxacin Mesylate]
remaining activity at 3.75 µM ([1]; Well no.=5322): 86.3% | remaining activity at 1.25 µM ([2]; Well no.=5322): 87.6%

O=C1CN(/N=C/c2ccc(-c3ccc([N+](=O)[O-])cc3)o2)C(=O)N1 [Dantrolene sodium salt]
remaining activity at 3.75 µM ([1]; Well no.=5847): 101% | remaining activity at 1.25 µM ([2]; Well no.=5847): 104%

O=C1CN(/N=C/c2ccc(-c3ccc([N+](=O)[O-])cc3)o2)C(=O)N1 [Dantrolene sodium]
remaining activity at 3.75 µM ([1]; Well no.=490): 103% | remaining activity at 1.25 µM ([2]; Well no.=490): 103%

CO[C@@H](C(=O)N1Cc2[nH]nc(NC(=O)c3ccc(N4CCN(C)CC4)cc3)c2C1)c1ccccc1 [Danusertib (PHA-739358)]
remaining activity at 3.75 µM ([1]; Well no.=5045): 106% | remaining activity at 1.25 µM ([2]; Well no.=5045): 103%

CCOc1ccc(Cc2cc([C@@H]3O[C@H](CO)[C@@H](O)[C@H](O)[C@H]3O)ccc2Cl)cc1 [Dapagliflozin]
remaining activity at 3.75 µM ([1]; Well no.=5291): 95.8% | remaining activity at 1.25 µM ([2]; Well no.=5291): 93.4%

O=c1ccc2ccc(O)c(O)c2o1 [Daphnetin]
remaining activity at 3.75 µM ([1]; Well no.=405): 101% | remaining activity at 1.25 µM ([2]; Well no.=405): 102%

Cc1ccccc1N1CCN(CCc2nnc3n2CCCC3)CC1 [Dapiprazole (hydrochloride)]
remaining activity at 3.75 µM ([1]; Well no.=6895): 100% | remaining activity at 1.25 µM ([2]; Well no.=6895): 97.8%

Cc1cc(C)c(Nc2ccnc(Nc3ccc(C#N)cc3)n2)c(C)c1 [Dapivirine]
remaining activity at 3.75 µM ([1]; Well no.=5223): 98.3% | remaining activity at 1.25 µM ([2]; Well no.=5223): 97.4%

CN(C)[C@@H](CCOc1cccc2ccccc12)c1ccccc1 [Dapoxetine hydrochloride]
remaining activity at 3.75 µM ([1]; Well no.=5853): 91% | remaining activity at 1.25 µM ([2]; Well no.=5853): 94.2%

O=C(O)CNC(=O)C1C(=O)N(C2CCCCC2)C(=O)N(C2CCCCC2)C1=O [Daprodustat (GSK1278863)]
remaining activity at 3.75 µM ([1]; Well no.=8534): 99.9% | remaining activity at 1.25 µM ([2]; Well no.=8534): 96.6%

CCCCCCCCCC(=O)N[C@@H](Cc1c[nH]c2ccccc12)C(=O)N[C@H](CC(N)=O)C(=O)N[C@@H](CC(=O)O)C(=O)N[C@@H]1C(=O)NCC(=O)N[C@@H](CCCN)C(=O)N[C@@H](CC(=O)O)C(=O)N[C@H](C)C(=O)N[C@@H](CC(=O)O)C(=O)NCC(=O)N[C@H](CO)C(=O)N[C@@H]([C@H](C)CC(=O)O)C(=O)N[C@@H](CC(=O)c2ccccc2N)C(=O)O[C@@H]1C [Daptomycin]
remaining activity at 3.75 µM ([1]; Well no.=5201): 100% | remaining activity at 3.75 µM ([1]; Well no.=7796): 105% | remaining activity at 1.25 µM ([2]; Well no.=5201): 98.3% | remaining activity at 1.25 µM ([2]; Well no.=7796): 104%

CCN(CC)CCN(Cc1ccc(-c2ccc(C(F)(F)F)cc2)cc1)C(=O)Cn1c(SCc2ccc(F)cc2)nc(=O)c2c1CCC2 [Darapladib (SB-480848)]
remaining activity at 3.75 µM ([1]; Well no.=8576): 98.6% | remaining activity at 1.25 µM ([2]; Well no.=8576): 101%

Cc1oc(-c2ccccc2)nc1CCC(=O)c1ccc(CC2SC(=O)NC2=O)cc1 (stereo not shown) [Darglitazone sodium salt]
remaining activity at 3.75 µM ([1]; Well no.=5504): 98% | remaining activity at 1.25 µM ([2]; Well no.=5504): 90.6%

NC(=O)C(c1ccccc1)(c1ccccc1)[C@@H]1CCN(CCc2ccc3c(c2)CCO3)C1 [Darifenacin (hydrobromide)]
remaining activity at 3.75 µM ([1]; Well no.=7341): 89.4% | remaining activity at 1.25 µM ([2]; Well no.=7341): 95.3%

NC(=O)C(c1ccccc1)(c1ccccc1)[C@@H]1CCN(CCc2ccc3c(c2)CCO3)C1 [Darifenacin HBr]
remaining activity at 3.75 µM ([1]; Well no.=5361): 97.1% | remaining activity at 1.25 µM ([2]; Well no.=5361): 104%

CC(C)CN(C[C@@H](O)[C@H](Cc1ccccc1)NC(=O)O[C@H]1CO[C@H]2OCC[C@H]21)S(=O)(=O)c1ccc(N)cc1 [Darunavir (Ethanolate)]
remaining activity at 3.75 µM ([1]; Well no.=8504): 90.4% | remaining activity at 1.25 µM ([2]; Well no.=8504): 98.9%

CC(C)CN(C[C@@H](O)[C@H](Cc1ccccc1)NC(=O)O[C@H]1CO[C@H]2OCC[C@H]21)S(=O)(=O)c1ccc(N)cc1 [Darunavir Ethanolate]
remaining activity at 3.75 µM ([1]; Well no.=8284): 94.1% | remaining activity at 1.25 µM ([2]; Well no.=8284): 90.9%

CC(C)CN(C[C@@H](O)[C@H](Cc1ccccc1)NC(=O)O[C@H]1CO[C@H]2OCC[C@H]21)S(=O)(=O)c1ccc(N)cc1 [Darunavir]
remaining activity at 3.75 µM ([1]; Well no.=7318): 108% | remaining activity at 1.25 µM ([2]; Well no.=7318): 108%

Cc1nc(Nc2ncc(C(=O)Nc3c(C)cccc3Cl)s2)cc(N2CCN(CCO)CC2)n1 [Dasatinib]
remaining activity at 3.75 µM ([1]; Well no.=2933): 97.3% | remaining activity at 1.25 µM ([2]; Well no.=2933): 101%

O=c1c(O)c(-c2ccccc2O)oc2cc(O)cc(O)c12 [Datiscetin]
remaining activity at 3.75 µM ([1]; Well no.=3251): 96.6% | remaining activity at 1.25 µM ([2]; Well no.=3251): 95.3%

COc1cccc2c1C(=O)c1c(O)c3c(c(O)c1C2=O)C[C@@](O)(C(C)=O)C[C@@H]3O[C@H]1C[C@H](N)[C@H](O)[C@H](C)O1 [Daunorubicin hydrochloride]
remaining activity at 3.75 µM ([1]; Well no.=728): 94.8% | remaining activity at 1.25 µM ([2]; Well no.=728): 94%

COc1cccc2c1C(=O)c1c(O)c3c(c(O)c1C2=O)C[C@@](O)(C(C)=O)C[C@@H]3O[C@H]1C[C@H](N)[C@H](O)[C@H](C)O1 [Daunorubicin]
remaining activity at 3.75 µM ([1]; Well no.=1708): 97.4% | remaining activity at 3.75 µM ([1]; Well no.=3221): 104% | remaining activity at 1.25 µM ([2]; Well no.=1708): 96.8% | remaining activity at 1.25 µM ([2]; Well no.=3221): 103%

N=C(N)N1CCc2ccccc2C1 [Debrisoquin sulfate]
remaining activity at 3.75 µM ([1]; Well no.=397): 104% | remaining activity at 1.25 µM ([2]; Well no.=397): 103%

N=C(N)N1CCc2ccccc2C1 [Debrisoquin]
remaining activity at 3.75 µM ([1]; Well no.=1905): 99.9% | remaining activity at 1.25 µM ([2]; Well no.=1905): 99.9%

C[N+](C)(C)CCCCCCCCCC[N+](C)(C)C [Decamethonium dibromide]
remaining activity at 3.75 µM ([1]; Well no.=683): 95.4% | remaining activity at 1.25 µM ([2]; Well no.=683): 94%

C[N+](C)(C)CCCCCCCCCC[N+](C)(C)C [Decamethonium]
remaining activity at 3.75 µM ([1]; Well no.=1554): 100% | remaining activity at 1.25 µM ([2]; Well no.=1554): 97.2%

O=C(O)CCCCCCCCC(=O)O [Decanedioic acid]
remaining activity at 3.75 µM ([1]; Well no.=6453): 95.8% | remaining activity at 1.25 µM ([2]; Well no.=6453): 93%

CCCCCCCCCC(=O)O [Decanoic acid]
remaining activity at 3.75 µM ([1]; Well no.=4540): 95.8% | remaining activity at 3.75 µM ([1]; Well no.=6973): 107% | remaining activity at 1.25 µM ([2]; Well no.=4540): 93.6% | remaining activity at 1.25 µM ([2]; Well no.=6973): 105%

Nc1ncn([C@H]2C[C@H](O)[C@@H](CO)O2)c(=O)n1 [Decitabine]
remaining activity at 3.75 µM ([1]; Well no.=5103): 99.8% | remaining activity at 1.25 µM ([2]; Well no.=5103): 102%

OCCOCCN1CCN(C(c2ccccc2)c2ccccc2)CC1 [Decloxizine (dihydrochloride)]
remaining activity at 3.75 µM ([1]; Well no.=8189): 103% | remaining activity at 1.25 µM ([2]; Well no.=8189): 102%

C=C1O[C@@](CO)(n2cnc3c(N)ncnc32)[C@H](O)[C@@H]1O [Decoyinine]
remaining activity at 3.75 µM ([1]; Well no.=3223): 104% | remaining activity at 1.25 µM ([2]; Well no.=3223): 100%
